Values of other authors in patent US7705031B2 (priority 2003, dated 2010).

Columns and labels:
[1] = tested on: neuropathic pain; details: human, in vivo
[2] = molecular target: NaV1.3 (Homo sapiens, UniProt Q9NY46); details: read-out: TTX IC50
NaV1.3, sequence (Q9NY46 whole entry, looked up): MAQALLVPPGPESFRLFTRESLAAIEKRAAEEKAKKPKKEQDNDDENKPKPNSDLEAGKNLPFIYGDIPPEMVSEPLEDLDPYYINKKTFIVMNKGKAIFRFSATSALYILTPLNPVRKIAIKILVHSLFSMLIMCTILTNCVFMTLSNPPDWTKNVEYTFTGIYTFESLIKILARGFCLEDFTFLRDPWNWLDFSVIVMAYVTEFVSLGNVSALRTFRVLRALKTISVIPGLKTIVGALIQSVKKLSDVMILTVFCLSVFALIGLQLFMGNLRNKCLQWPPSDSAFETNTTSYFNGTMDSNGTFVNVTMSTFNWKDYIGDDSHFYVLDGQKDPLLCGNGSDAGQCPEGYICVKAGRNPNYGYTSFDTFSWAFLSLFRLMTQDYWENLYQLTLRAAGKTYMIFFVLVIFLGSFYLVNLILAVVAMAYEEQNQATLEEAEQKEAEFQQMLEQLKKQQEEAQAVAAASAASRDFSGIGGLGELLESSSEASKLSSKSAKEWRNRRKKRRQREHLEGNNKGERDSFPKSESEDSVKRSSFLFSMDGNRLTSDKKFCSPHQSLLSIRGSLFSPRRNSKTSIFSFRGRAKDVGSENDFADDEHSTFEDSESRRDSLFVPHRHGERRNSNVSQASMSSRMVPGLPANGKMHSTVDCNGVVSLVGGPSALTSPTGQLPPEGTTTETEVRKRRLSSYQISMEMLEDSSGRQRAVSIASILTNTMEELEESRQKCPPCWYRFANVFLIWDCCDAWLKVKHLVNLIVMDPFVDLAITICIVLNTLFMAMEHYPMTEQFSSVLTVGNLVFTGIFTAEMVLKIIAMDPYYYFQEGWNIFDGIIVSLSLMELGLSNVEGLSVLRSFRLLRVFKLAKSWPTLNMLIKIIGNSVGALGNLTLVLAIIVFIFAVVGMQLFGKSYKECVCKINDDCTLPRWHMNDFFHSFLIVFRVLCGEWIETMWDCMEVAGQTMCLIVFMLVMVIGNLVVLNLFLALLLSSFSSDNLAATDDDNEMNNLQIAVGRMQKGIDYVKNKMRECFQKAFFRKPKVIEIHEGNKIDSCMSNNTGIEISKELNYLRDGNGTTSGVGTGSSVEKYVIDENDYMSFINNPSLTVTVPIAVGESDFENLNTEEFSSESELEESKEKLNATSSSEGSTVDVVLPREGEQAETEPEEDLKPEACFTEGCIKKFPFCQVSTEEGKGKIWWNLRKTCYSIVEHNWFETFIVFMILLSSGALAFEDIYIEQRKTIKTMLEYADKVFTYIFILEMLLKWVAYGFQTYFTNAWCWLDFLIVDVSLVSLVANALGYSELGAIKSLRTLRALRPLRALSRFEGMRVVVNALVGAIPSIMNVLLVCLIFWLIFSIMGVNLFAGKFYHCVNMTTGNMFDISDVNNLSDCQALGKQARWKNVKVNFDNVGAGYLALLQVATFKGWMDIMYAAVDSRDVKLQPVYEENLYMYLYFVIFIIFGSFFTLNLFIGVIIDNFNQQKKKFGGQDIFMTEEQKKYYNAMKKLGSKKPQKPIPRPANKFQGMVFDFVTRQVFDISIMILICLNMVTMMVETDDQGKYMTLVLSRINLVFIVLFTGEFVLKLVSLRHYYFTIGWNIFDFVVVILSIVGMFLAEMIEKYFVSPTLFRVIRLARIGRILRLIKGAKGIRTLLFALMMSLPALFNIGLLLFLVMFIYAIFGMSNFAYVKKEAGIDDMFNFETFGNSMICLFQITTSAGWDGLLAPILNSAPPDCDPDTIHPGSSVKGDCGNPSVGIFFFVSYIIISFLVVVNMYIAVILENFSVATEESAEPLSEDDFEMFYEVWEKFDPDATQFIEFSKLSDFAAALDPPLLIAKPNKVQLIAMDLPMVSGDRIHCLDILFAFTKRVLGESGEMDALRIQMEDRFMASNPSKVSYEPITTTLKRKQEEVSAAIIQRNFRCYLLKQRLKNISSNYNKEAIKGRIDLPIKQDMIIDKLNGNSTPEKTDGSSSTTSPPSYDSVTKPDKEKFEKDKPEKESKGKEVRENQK

SMILES | share of patients in whom the drug works [1] [%] | IC50 [2] [nM]
NCC1(CC(=O)O)CCCCC1 [Gabapentin] | 60 | 
NC1=N[C@H](O)[C@H]2[C@H]3O[C@]4(O)O[C@@H]([C@@H](O)[C@@]2(N1)[C@@H]4O)[C@]3(O)CO [TTX, tetrodotoxin] |  | 15
